Laboratory results reported in patent US5554620A, “Substituted 6,11-ethano-6,11-dihydrobenzo[b] quinolizinium salts and compositions and methods of use thereof” (Sterling Winthrop Inc., priority 1994, dated 1996).

Columns and labels:
[1] = tested on: cultured cortical neurons; assay: Antagonism of NMDA-induced neurotoxicity in cultured cortical neurons (LDH release); format: cell-based, mouse (Swiss-Webster); settings: Mus musculus, Cortical neurone, 500 μM NMDA, 30 min exposure; LDH 24 h later
Description: Antagonism of NMDA-induced Neurotoxicity in Cultured Neurons
Preparation of Cultured Cortical Neurons
Pregnant, Swiss-Webster mice were obtained from Taconic Farms (Germantown, New York) and sacrificed 16 days post conception. Fetuses were removed and placed in a sterile dish containing Hank's balanced salt solution (HBSS), pH 7.4. Brain cortices were dissected, meninges were removed, the tissue was minced and placed into a solution of HBSS containing 0.25% (w/v) trypsin at 37° C. for 15 minutes. Tissue was then triturated with a sterile pasteur pipet, diluted with minimal essential media (Gibco 330-1430), pH 7.4, supplemented with 10% horse serum, 10% fetal calf serum, 2 mM 1-glutamine, 21 mM d-glucose, 2.2 g/L sodium bicarbonate, 1000 U/mL penicillin, and 1,000 μg/mL streptomycin. Cells were plated onto Falcon primaria 96 well plates at a final density of 50,000 cells/well and incubated at 37 °C in the presence of 5% (v/v) carbon dioxide. After 5 days, plating media was replaced with maintenance media containing minimal essential media (Gibco 330-1430), pH 7.4, supplemented with 10% horse serum, […], 21 mM d-glucose, 2.2 g/L sodium bicarbonate, 1,000 U/mL penicillin, 1,000 μg/mL streptomycin, and 10 μM cytosine arabinoside. On days 7 and 10, media was replaced with maintenance media as above lacking the cytosine arabinoside. Experiments were conducted on day 13.
Neuroprotection Assessment
Day 13 cultured cortical neurons were washed twice with minimal essential media, pH 7.4 and then exposed for 30 minutes to 500 μM N-methyl-D-aspartic acid (NMDA) with or without varying concentrations of test agents. […] MK-801 and test agents were prepared in minimal essential media supplemented with 21 mM d-glucose and 2.2 g/L sodium bicarbonate (MEM). After 30 minutes, media was replaced with MEM alone. Exposure of neurons to test agents was limited to the NMDA treatment period. Twenty-four hours after removal of NMDA, an aliquot of media from each well was removed for assessment of cell injury by determining lactate dehydrogenase (LDH) activity by the method of Wroblewski and LaDue Proc. Soc. Exp. Biol. Med. 1955, 90, 210-213. The results are expressed as an IC50 (in nM) value (concentration causing 50% inhibition) for the antagonism of NMDA--inducedneurotoxicity. Table 3 summarizes the results obtained from the testing of representative compounds of the invention in the [^3 H]TCP radioreceptor assay as well as in the antagonism of NMDA-induced neurotoxicity in cultured neurons.

rat ischemia model = assay: Middle cerebral artery occlusion (MCAo) model with reperfusion; format: in vivo, rat (male Long Evans hooded and male Sprague-Dawley); settings: i.v. infusion started 30 min before occlusion
Description: Middle Cerebral Artery Occlusion (MCAo) Model with Reperfusion
A 3-vessel rat ischemia model similar to those that have been extensively described in the literature (e.g. Stroke 17, 738-743 (1986), Stroke 20, 513-518 (1989)) was utilized. Under isoflurane anesthesia the right middle cerebral artery (via an approach through the temporalis muscle) and both common carotid arteries were reversibly occluded for varying durations between 60 minutes and 120 minutes. Both male Long Evans hooded rats and male Sprague-Dawley rats weighing between 300 and 420 grams were used. The animals' temperature was maintained throughout the study with heat lamps. A femoral vein and the ipsilateral femoral artery were cannulated for intravenous infusion and arterial blood pressure measurements and blood samples. Infusions of the test compounds were initiated 30 minutes prior to occlusion at a rate of 40 microliters per minute. After reinitiation of blood flow the animals were allowed to regain consciousness. Six hours post-initiation of ischemia the animals were sacrificed and the extent of neuronal damage was quantified with TTC staining. The results are expressed as a percent inhibition (±SEM) of infarct and penumbra region.

PCP receptor = assay: [3H]TCP radioreceptor assay (binding to PCP recognition sites); parameters: species or system rat (male Sprague-Dawley, whole brain); settings: [3H]TCP approx. 1 nM, rat brain membranes; mean of at least two determinations
In short: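 Rat whole-brain membranes (Tris-HCl, pH 7.7), 0.5 mg protein/tube, incubated with ~1 nM [3H]TCP for 25 min at room temperature; non-specific binding defined with 100 μM PCP. Bound ligand collected by filtration and counted by scintillation; Ki from at least two determinations, or % inhibition at 10 μM.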

Row | Structure (SMILES) | IC50 [1] | % Inhibition (± SEM) of infarct and penumbra region (rat ischemia model; 0.03 mg test compound/kg/min) | % Inhibition (± SEM) of infarct and penumbra region (rat ischemia model; 0.1 mg test compound/kg/min) | Ki (PCP receptor) | % Inhibition (± SEM) of infarct and penumbra region (rat ischemia model; 0.01 mg test compound/kg/min)
1 | [Cl-].c1ccc2c(c1)C1CC(c3ccoc3)(c3ccoc3)C2c2cccc[n+]21 (centres unmarked) [39(c), 6,11-ethano-12,12-di(3-furanyl)-6,11-dihydrobenzo[b]quinolizinium chloride] | 45.4 nM | 20 ± 7% | 34 ± 6% | 1.79 nM | 
2 | Oc1cccc2c1C1c3cccc[n+]3C2CC1(c1ccoc1)c1ccoc1.[Cl-] (centres unmarked) [Example 68(c), 6,11-ethano-12,12-di(3-furyl)-10-hydroxy-6,11-dihydrobenzo[b]quinoliziniumchloride] |  |  | 34 ± 14% | 1.5 nM | 
3 | c1ccc2c(c1)C1CC(c3ccoc3)(c3ccoc3)C2c2cccc[n+]21 (single isomer, unassigned; (+)) [Example 40(b), (+)-6,11-ethano-12,12-di(3-furanyl)-6,11-dihydrobenzo[b]quinolizinium chloride 3/2 hydrate] | 20 nM | 49 ± 25% | 47 ± 18% | 1.66 nM | 1 ± 31%
